According to patent publication US20230079045A1 (priority 2019, published 2023):

Legend:
Format in all cases: cell-based, influenza virus
IFVA/Weiss/43 = assay: cytopathic effect (CPE) antiviral test in MDCK cells, IFVA/Weiss/43; settings: unidentified influenza virus, MDCK, 120 h, read-out: EC50(IFVA/Weiss/43), MDCK cells, CPE method, CCK-8 cell viability, 5 days
IFVA/Mal/302/54 = assay: cytopathic effect (CPE) antiviral test in MDCK cells, IFVA/Mal/302/54; settings: unidentified influenza virus, MDCK, 120 h, read-out: EC50(IFVA/Mal/302/54), MDCK cells, CPE method, CCK-8 cell viability, 5 days
IFV A/PR/8/34 = assay: cytopathic effect (CPE) antiviral test in MDCK cells, IFV A/PR/8/34; settings: unidentified influenza virus, PR/8, MDCK, 120 h, read-out: EC50(IFV A/PR/8/34)

Question: Which results are given for `O=C(Nc1ccc2oc(-c3ccnc(C(=O)N4CCN([C@H](c5ccccc5)c5nnn(C(F)F)n5)CC4)c3)nc2c1)[C@@H]1C[C@@H]1F` [Compound 75, (1S,2S)—N-(2-(2-(4-((R)-(2-(difluoromethyl)-2H-tetrazol-5-yl)(phenyl)methyl)piperazine-1-carbonyl)pyridin-4-yl)benzo[d]oxazol-5-yl)-2-fluorocyclopropane-1-carboxamide]?
Answer: EC50 (IFVA/Weiss/43): 0.002 µM; EC50 (IFVA/Mal/302/54): 0.006 µM; EC50 (IFV A/PR/8/34): 0.002 µM

Question: `O=C(Nc1ccc2nc(-c3ccnc(C(=O)N4CCN(C(c5ccccc5)c5nnn(C(F)F)n5)CC4)c3)oc2c1)[C@@H]1CC1(F)F` (mixture of isomers) [Compound 103, (S)—N-(2-(2-(4-((R/S)-(2-(difluoromethyl)-2H-tetrazol-5-yl)(phenyl)methyl)piperazine-1-carbonyl)pyridin-4-yl)benzo[d]oxazol-6-yl)-2,2-difluorocyclopropane-1-carboxamide] was tested. Which EC50 (IFVA/Weiss/43) did it give?
Answer: 0.007 µM

Question: What about the EC50 (IFVA/Mal/302/54) of the same compound?
Answer: 0.017 µM

Question: And the EC50 (IFV A/PR/8/34)?
Answer: 0.026 µM

Question: How did the EC50 (IFVA/Weiss/43) turn out when `[2H]C([2H])([2H])C(=O)Nc1ccc2oc(-c3ccnc(C(=O)N4CCN(C(c5ccccc5)c5nnn(C(F)F)n5)CC4)c3)nc2c1` (racemic) [Compound 114, (R/S)—N-(2-(2-(4-((2-(difluoromethyl)-2H-tetrazol-5-yl)(phenyl)methyl)piperazine-1-carbonyl)pyridin-4-yl)benzo[d]oxazol-5-yl) Deuterated Acetamide] was run?
Answer: 0.019 µM

Question: What about the EC50 (IFVA/Mal/302/54) of the same compound?
Answer: 0.01 µM

Question: And the EC50 (IFV A/PR/8/34)?
Answer: 0.025 µM

Question: What does the source list for `CC(C)(F)C(=O)Nc1ccc2oc(-c3ccnc(C(=O)N4CCN(C(c5ccccc5)c5nnn(C(F)F)n5)CC4)c3)nc2c1` (racemic) [Compound 108, (R/S)—N-(2-(2-(4-((2-(difluoromethyl)-2H-tetrazol-5-yl)(phenyl)methyl)piperazine-1-carbonyl)pyridin-4-yl)benzo[d]oxazol-5-yl)-2-fluoro-2-methylpropanamide]?
Answer: EC50 (IFVA/Weiss/43): 0.002 µM; EC50 (IFVA/Mal/302/54): 0.006 µM; EC50 (IFV A/PR/8/34): 0.023 µM

Question: Which results are given for `O=C(c1cc(-c2nc3cc(-c4nccs4)ccc3o2)ccn1)N1CCN(C(c2ccccc2)c2nnn(C(F)F)n2)CC1` (racemic) [Compound 119, (R/S)-(4-((2-(difluoromethyl)-2H-tetrazol-5-yl)(phenyl)methyl)piperazin-1-yl)(4-(5-(thiazol-2-yl)benzo[d]oxazol-2-yl)pyridin-2-yl)methanone]?
Answer: EC50 (IFVA/Weiss/43): 0.002 µM; EC50 (IFVA/Mal/302/54): 0.006 µM; EC50 (IFV A/PR/8/34): 0.022 µM

Question: For `O=C(c1cc(-c2nc3cc(-c4cnccn4)ccc3o2)ccn1)N1CCN(C(c2ccccc2)c2nnn(C(F)F)n2)CC1` (racemic) [Compound 112, (R/S)-(4-((2-(difluoromethyl)-2H-tetrazol-5-yl)(phenyl)methyl)piperazin-1-yl)(4-(5-(pyrazin-2-yl)benzo[d]oxazol-2-yl)pyridin-2-yl)methanone], which EC50 (IFVA/Weiss/43) is on record?
Answer: 0.011 µM

Question: And the EC50 (IFVA/Mal/302/54)?
Answer: 0.008 µM

Question: And the EC50 (IFV A/PR/8/34)?
Answer: 0.036 µM

Question: Which results are given for `O=C(Nc1ccc2oc(-c3ccnc(C(=O)N4CCN(C(c5ccccc5)c5nnn(C(F)F)n5)CC4)c3)nc2c1)C1CCC1` (racemic) [Compound 67, (R/S)—N-(2-(2-(4-((2-(difluoromethyl)-2H-tetrazol-5-yl)(phenyl)methyl)piperazine-1-carbonyl)pyridin-4-yl)benzo[d]oxazol-5-yl)cyclobutanecarboxamide]?
Answer: EC50 (IFVA/Weiss/43): 0.012 µM; EC50 (IFVA/Mal/302/54): 0.021 µM; EC50 (IFV A/PR/8/34): 0.017 µM

Question: How did the EC50 (IFVA/Weiss/43) turn out when `[2H]C([2H])([2H])C(C(=O)Nc1ccc2oc(-c3ccnc(C(=O)N4CCN(C(c5ccccc5)c5nnn(C(F)F)n5)CC4)c3)nc2c1)C([2H])([2H])[2H]` (racemic) [Compound 109, (R/S)—N-(2-(2-(4-((2-(difluoromethyl)-2H-tetrazol-5-yl)(phenyl)methyl)piperazine-1-carbonyl)pyridin-4-yl)benzo[d]oxazol-5-yl)-2-(methyl-d3)propanamide] was run?
Answer: 0.006 µM

Question: And the EC50 (IFVA/Mal/302/54)?
Answer: 0.011 µM

Question: What about the EC50 (IFV A/PR/8/34) of the same compound?
Answer: 0.012 µM
